According to EP1171107B1, “USE OF A PHARMACEUTICAL COMPOSITION IN THE MANUFACTURE OF A MEDICAMENT FOR THE TREATMENT OF PATHOLOGICAL CONDITIONS OF THE EYE CAUSED BY BACTERIA, VIRUSES, FUNGI, YEASTS AND PROTOZOA” (Dr. GERHARD MANN chem.-pharm. Fabrik GmbH, priority 1999, dated 2000):
Where a name gives a salt, the structure may show the parent alone.

How the values were obtained:
Type in all cases: cell-based
[1] = test system: Sc. pneumoniae; test: Qualitative examination: enrichment of the inoculated test preparation in broth
Excerpt: (§1) Escherichia (E.coli) Staphylococcus (S.aureus) Streptococcus (Sc.) Pneumoniae Pseudomonas (P.aeruginosa) Staphylococcus (S. epidermidis) Haemophilus (H. influenzae)
(§2) Die verschiedenen Testkeime wurde jeweils aus einem Lyophilisat in NaCl-Peptonpuffer homogenisiert und auf Caseinpepton-Sojymehlpepton. (Caso-) Agar (Fa. bioMérieux; Art. Nr. 43019) bez. Kochblut-Agar (Fa. bioMérieux; Art. Nr. 43109) subkultiviert. Die Teststämme wurden vor Versuchsbeginn durch Erstellen eines biochemischen Profils mittels ATB/Vitek-System (Fa. bioMérieux, Nürtingen) auf Reinheit und Identität überprüft.
(§3) Die verschiedenen Testsubstanzen a. bis j. wurden jeweils zu 5 ml in sterile Zentrifugenröhrchen abgefüllt und mit ca. 10^5 KBE^*/ml (* = koloniebildende Einheiten) der oben genannten Testkeime kontaminiert. Pro Substanz wurde für jeden Testkeim und jede zu prüfende Testzeit ein separater Ansatz angeimpft, d.h.10 Testsubstanzen zu jeweils 7 Testzeiten und 6 Testkeime (= insgesamt 502 Testansätze). […] Der Überstand wurde dekantiert und das Pellet in 5 ml NaCl Peptonpuffer aufgenommen und resuspendiert. Die Suspension wurde erneut 10 Minuten bei 3000 rpm abzentrifugiert und 5 ml NaCl-Peptonpuffer aufgenommen und mittels Vortex homogenisiert.
(§4) Jeweils 2 ml der Testansätze wurden in 20 ml Caso-Bouillon oder für H. influenzae, in Fildes-Medium der Firma Becton Dickinson, ARt. Nr. 0349-739, angereichert und ebenfalls maximal 4 Tage bei 33± 2°C bebrütet. Ein negatives Ergebnis der Anreicherung belegt die Elimination der inokulierten Keime.

[2] = test system: S.aureus; test: as above
Excerpt: as §1, §2, §3, §4

[3] = test system: E.coli; test: as above
Excerpt: as §1, §2, §3, §4

[4] = test system: S.epidermidis; test: as above
Excerpt: as §1, §2, §3, §4

[5] = test system: H.influenzae; test: as above
Excerpt: as §1, §2
(§5) Die verschiedenen Testsubstanzen a. bis j. wurden jeweils zu 5 ml in sterile Zentrifugenröhrchen abgefüllt und mit ca. 10^5 KBE^*/ml (* = koloniebildende Einheiten) der oben genannten Testkeime kontaminiert. Pro Substanz wurde für jeden Testkeim und jede zu prüfende Testzeit ein separater Ansatz angeimpft, d.h.10 Testsubstanzen zu jeweils 7 Testzeiten und 6 Testkeime (= insgesamt 502 Testansätze). Nach 2, 6, 8, 24, 32, 48 und 72 Stunden wurde dann der jeweilige Testansatz 10 Minuten bei 3000 rpm abzentrifugiert. Der Überstand wurde dekantiert und das Pellet in 5 ml NaCl Peptonpuffer aufgenommen und resuspendiert. Die Suspension wurde erneut 10 Minuten bei 3000 rpm abzentrifugiert und 5 ml NaCl-Peptonpuffer aufgenommen und mittels Vortex homogenisiert.
as §4

[6] = test system: P.aeruginosa; test: as above
Excerpt: as §1, §2, §5, §4

[7] = test system: P.aeruginosa; test: Quantitative germ count (re-isolation, surface method) after inoculating the test preparation; settings: Ausgangskeimzahl 2,7 x 10^5 KBE/ml
Excerpt: as §1, §2
(§6) Die Ausgangskeimzahl wurde im Oberflächenverfahren mit Hilfe eines Spiralplaters (Fa. Meintrup, Lähden) ermittelt und ist im einzelnen den Tabellen 1-12 zu entnehmen.
as §5
(§7) Die anschließende Keimzahlbestimmung erfolgte im Oberflächenverfahren durch Ausspiralisieren eines […] Aliquots auf Caso-Agar bzw. für H. influenzae auf Kochblut-Agar. Die Platten wurden bei 33±2°C für max. 4 Tage bebrütet. Die Nachweisgrenze des Verfahrens liegt bei 100 KBE/ml.

[8] = test system: Sc. pneumoniae; test: as above; settings: Ausgangskeimzahl 3,7 x 10^5 KBE/ml
Excerpt: as §1, §2, §6, §3, §7

[9] = test system: H.influenzae; test: as above; settings: Ausgangskeimzahl 2,8 x 10^5 KBE/ml
Excerpt: as §1, §2, §6, §3, §7

[10] = test system: S.aureus; test: as above; settings: Ausgangskeimzahl 2,6 x 10^5 KBE/ml
Excerpt: as §1, §2, §6, §3, §7

[11] = test system: E.coli; test: as above; settings: Ausgangskeimzahl 2,7 x 10^5 KBE/ml
Excerpt: as §1, §2, §6, §3, §7

SMILES: O=C(O)c1cn(C2CC2)c2cc(N3CCNCC3)c(F)cc2c1=O [Ciprofloxacin HCl 0,35 Gew.-%, Ciprofloxacin HCl, reference compound]
- Ergebnis der Reisolierung qualitiativ (+/-) nach Anreicherung ([1]; 2 h after inoculation): -
- Ergebnis der Reisolierung qualitiativ (+/-) nach Anreicherung ([1]; 4 h after inoculation): -
- Ergebnis der Reisolierung qualitiativ (+/-) nach Anreicherung ([1]; 6 h after inoculation): -
- Ergebnis der Reisolierung qualitiativ (+/-) nach Anreicherung ([1]; 8 h after inoculation): -
- Ergebnis der Reisolierung qualitiativ (+/-) nach Anreicherung ([1]; 24 h after inoculation): -
- Ergebnis der Reisolierung qualitiativ (+/-) nach Anreicherung ([1]; 32 h after inoculation): -
- Ergebnis der Reisolierung qualitiativ (+/-) nach Anreicherung ([1]; 48 h after inoculation): -
- Ergebnis der Reisolierung qualitiativ (+/-) nach Anreicherung ([1]; 72 h after inoculation): -
- Ergebnis der Reisolierung qualitiativ (+/-) nach Anreicherung ([2]; 2 h after inoculation): +
- Ergebnis der Reisolierung qualitiativ (+/-) nach Anreicherung ([2]; 4 h after inoculation): +
- Ergebnis der Reisolierung qualitiativ (+/-) nach Anreicherung ([2]; 6 h after inoculation): +
- Ergebnis der Reisolierung qualitiativ (+/-) nach Anreicherung ([2]; 8 h after inoculation): +
- Ergebnis der Reisolierung qualitiativ (+/-) nach Anreicherung ([2]; 24 h after inoculation): -
- Ergebnis der Reisolierung qualitiativ (+/-) nach Anreicherung ([2]; 32 h after inoculation): -
- Ergebnis der Reisolierung qualitiativ (+/-) nach Anreicherung ([2]; 48 h after inoculation): -
- Ergebnis der Reisolierung qualitiativ (+/-) nach Anreicherung ([2]; 72 h after inoculation): -
- Ergebnis der Reisolierung qualitiativ (+/-) nach Anreicherung ([3]; 2 h after inoculation): -
- Ergebnis der Reisolierung qualitiativ (+/-) nach Anreicherung ([3]; 4 h after inoculation): -
- Ergebnis der Reisolierung qualitiativ (+/-) nach Anreicherung ([3]; 6 h after inoculation): -
- Ergebnis der Reisolierung qualitiativ (+/-) nach Anreicherung ([3]; 8 h after inoculation): -
- Ergebnis der Reisolierung qualitiativ (+/-) nach Anreicherung ([3]; 24 h after inoculation): -
- Ergebnis der Reisolierung qualitiativ (+/-) nach Anreicherung ([3]; 32 h after inoculation): -
- Ergebnis der Reisolierung qualitiativ (+/-) nach Anreicherung ([3]; 48 h after inoculation): -
- Ergebnis der Reisolierung qualitiativ (+/-) nach Anreicherung ([3]; 72 h after inoculation): -
- Ergebnis der Reisolierung qualitiativ (+/-) nach Anreicherung ([4]; 2 h after inoculation): +
- Ergebnis der Reisolierung qualitiativ (+/-) nach Anreicherung ([4]; 4 h after inoculation): +
- Ergebnis der Reisolierung qualitiativ (+/-) nach Anreicherung ([4]; 6 h after inoculation): +
- Ergebnis der Reisolierung qualitiativ (+/-) nach Anreicherung ([4]; 8 h after inoculation): -
- Ergebnis der Reisolierung qualitiativ (+/-) nach Anreicherung ([4]; 24 h after inoculation): -
- Ergebnis der Reisolierung qualitiativ (+/-) nach Anreicherung ([4]; 32 h after inoculation): -
- Ergebnis der Reisolierung qualitiativ (+/-) nach Anreicherung ([4]; 48 h after inoculation): -
- Ergebnis der Reisolierung qualitiativ (+/-) nach Anreicherung ([4]; 72 h after inoculation): -
- Ergebnis der Reisolierung qualitiativ (+/-) nach Anreicherung ([5]; 2 h after inoculation): -
- Ergebnis der Reisolierung qualitiativ (+/-) nach Anreicherung ([5]; 4 h after inoculation): -
- Ergebnis der Reisolierung qualitiativ (+/-) nach Anreicherung ([5]; 6 h after inoculation): -
- Ergebnis der Reisolierung qualitiativ (+/-) nach Anreicherung ([5]; 8 h after inoculation): -
- Ergebnis der Reisolierung qualitiativ (+/-) nach Anreicherung ([5]; 24 h after inoculation): -
- Ergebnis der Reisolierung qualitiativ (+/-) nach Anreicherung ([5]; 32 h after inoculation): -
- Ergebnis der Reisolierung qualitiativ (+/-) nach Anreicherung ([5]; 48 h after inoculation): -
- Ergebnis der Reisolierung qualitiativ (+/-) nach Anreicherung ([5]; 72 h after inoculation): -
- Ergebnis der Reisolierung qualitiativ (+/-) nach Anreicherung ([6]; 2 h after inoculation): -
- Ergebnis der Reisolierung qualitiativ (+/-) nach Anreicherung ([6]; 4 h after inoculation): -
- Ergebnis der Reisolierung qualitiativ (+/-) nach Anreicherung ([6]; 6 h after inoculation): -
- Ergebnis der Reisolierung qualitiativ (+/-) nach Anreicherung ([6]; 8 h after inoculation): - -
- Ergebnis der Reisolierung qualitiativ (+/-) nach Anreicherung ([6]; 24 h after inoculation): -
- Ergebnis der Reisolierung qualitiativ (+/-) nach Anreicherung ([6]; 32 h after inoculation): -
- Ergebnis der Reisolierung qualitiativ (+/-) nach Anreicherung ([6]; 48 h after inoculation): -
- Ergebnis der Reisolierung qualitiativ (+/-) nach Anreicherung ([6]; 72 h after inoculation): -
- Ergebnis der Reisolierung (in KBE/ml) ([7]; 2 h after inoculation): <100 KBE/ml
- Ergebnis der Reisolierung (in KBE/ml) ([7]; 4 h after inoculation): <100 KBE/ml
- Ergebnis der Reisolierung (in KBE/ml) ([7]; 6 h after inoculation): <100 KBE/ml
- Ergebnis der Reisolierung (in KBE/ml) ([7]; 8 h after inoculation): <100 KBE/ml
- Ergebnis der Reisolierung (in KBE/ml) ([7]; 24 h after inoculation): <100 KBE/ml
- Ergebnis der Reisolierung (in KBE/ml) ([7]; 32 h after inoculation): <100 KBE/ml
- Ergebnis der Reisolierung (in KBE/ml) ([7]; 48 h after inoculation): <100 KBE/ml
- Ergebnis der Reisolierung (in KBE/ml) ([7]; 72 h after inoculation): <100 KBE/ml
- Ergebnis der Reisolierung (in KBE/ml) ([8]; 2 h after inoculation): <100 KBE/ml
- Ergebnis der Reisolierung (in KBE/ml) ([8]; 4 h after inoculation): <100 KBE/ml
- Ergebnis der Reisolierung (in KBE/ml) ([8]; 6 h after inoculation): <100 KBE/ml
- Ergebnis der Reisolierung (in KBE/ml) ([8]; 8 h after inoculation): <100 KBE/ml
- Ergebnis der Reisolierung (in KBE/ml) ([8]; 24 h after inoculation): <100 KBE/ml
- Ergebnis der Reisolierung (in KBE/ml) ([8]; 32 h after inoculation): <100 KBE/ml
- Ergebnis der Reisolierung (in KBE/ml) ([8]; 48 h after inoculation): <100 KBE/ml
- Ergebnis der Reisolierung (in KBE/ml) ([8]; 72 h after inoculation): <100 KBE/ml
- Ergebnis der Reisolierung (in KBE/ml) ([9]; 2 h after inoculation): <100 KBE/ml
- Ergebnis der Reisolierung (in KBE/ml) ([9]; 4 h after inoculation): <100 KBE/ml
- Ergebnis der Reisolierung (in KBE/ml) ([9]; 6 h after inoculation): <100 KBE/ml
- Ergebnis der Reisolierung (in KBE/ml) ([9]; 8 h after inoculation): <100 KBE/ml
- Ergebnis der Reisolierung (in KBE/ml) ([9]; 24 h after inoculation): <100 KBE/ml
- Ergebnis der Reisolierung (in KBE/ml) ([9]; 32 h after inoculation): <100 KBE/ml
- Ergebnis der Reisolierung (in KBE/ml) ([9]; 48 h after inoculation): <100 KBE/ml
- Ergebnis der Reisolierung (in KBE/ml) ([9]; 72 h after inoculation): <100 KBE/ml
- Ergebnis der Reisolierung (in KBE/ml) ([10]; 2 h after inoculation): <100 KBE/ml
- Ergebnis der Reisolierung (in KBE/ml) ([10]; 4 h after inoculation): <100 KBE/ml
- Ergebnis der Reisolierung (in KBE/ml) ([10]; 6 h after inoculation): <100 KBE/ml
- Ergebnis der Reisolierung (in KBE/ml) ([10]; 24 h after inoculation): <100 KBE/ml
- Ergebnis der Reisolierung (in KBE/ml) ([10]; 32 h after inoculation): <100 KBE/ml
- Ergebnis der Reisolierung (in KBE/ml) ([10]; 48 h after inoculation): <100 KBE/ml
- Ergebnis der Reisolierung (in KBE/ml) ([10]; 72 h after inoculation): <100 KBE/ml
- Ergebnis der Reisolierung (in KBE/ml) ([11]; 2 h after inoculation): <100 KBE/ml
- Ergebnis der Reisolierung (in KBE/ml) ([11]; 4 h after inoculation): <100 KBE/ml
- Ergebnis der Reisolierung (in KBE/ml) ([11]; 6 h after inoculation): <100 KBE/ml
- Ergebnis der Reisolierung (in KBE/ml) ([11]; 8 h after inoculation): <100 KBE/ml
- Ergebnis der Reisolierung (in KBE/ml) ([11]; 24 h after inoculation): <100 KBE/ml
- Ergebnis der Reisolierung (in KBE/ml) ([11]; 32 h after inoculation): <100 KBE/ml
- Ergebnis der Reisolierung (in KBE/ml) ([11]; 48 h after inoculation): <100 KBE/ml
- Ergebnis der Reisolierung (in KBE/ml) ([11]; 72 h after inoculation): <100 KBE/ml
